In patent publication US8445636B2, “Antimicrobial and anticancer lipopeptides” (Yeda Research & Development Co. Ltd., priority 2003, dated 2013):
Converted amounts (≈) assume the structure as drawn. Where two headings read alike, the source gives them in different places. Non-standard residues stand in square brackets, D forms with d. Residues, ends and D or L forms follow the SMILES beside them. *: point of attachment. Palmitoyl = CCCCCCCCCCCCCCCC(=O)*; Undecanoyl = CCCCCCCCCCC(=O)*

Experiments:
Format in all cases: cell-based
[1] = test system: Cryptococcus neoformans ATCC MYA-422; assay: microbe, parasite or virus in culture
[2] = test system: Candida albicans ATCC 10231; assay: microbe, parasite or virus in culture; details: for MIC: read-out: Minimal Inhibitory Concentration, Candida Albicans (ATCC 10231)
How it was run: (§1)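 In this assay, each strain, prepared at 1×10^4 CFU/ml before mixing, met serial twofold peptide dilutions in RPMI 1640 buffered with 0.165 M MOPS. Unless noted, pH was 7.4; a pH 5.5 condition was also run. After 24-48 h incubation (35 °C, agitated), wells were scored at 620 nm for total inhibition.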

[3] = test system: Aspergillus niger ATCC 9642
Description: The antifungal activity of the lipopeptides was examined in sterile 96-well plates (Nunc F96 microtiter plates) in a final volume of 200 μL as follows: 100 µl of a suspension containing fungi at a concentration of 1×10^4 Colony-Forming Units (CFU)/ml in culture medium (RPMI 1640, 0.165 M MOPS with L-glutamine, without NaHCO3) at pH 7.4 or pH 5.5 (adjustment of the pH was done by diluted solutions of HCl and NaOH) were added to 100 μl of water containing the peptide in serial 2-fold dilutions in water. The fungi were incubated in the presence of the lipopeptides for 24-48 h at 35° C. in a Binder KB115 incubator under agitation. Growth inhibition was determined by measuring the absorbance at 620 nm with a Microplate autoreader E1309 (Bio-Tek Instruments). Antifungal activity is expressed as the minimal inhibitory concentration (MIC), the concentration at which 100% inhibition of fungi growth was observed after the incubation time mentioned above. The fungi used were: Aspergillus niger ATCC 9642, Candida albicans ATCC 10231 and Cryptococcus neoformans ATCC 66031. If not indicated otherwise, the fungi growth was detected at pH 7.4.

[4] = test system: Aspergillus flavus ATCC 9643
B. subtilis ATCC 6051 = test system: B. subtilis ATCC 6051
[5] = test system: Aspergillus fumigatus ATCC 26430; assay: microbe, parasite or virus in culture
[6] = test system: Escherichia coli ATCC 25922
How it was run: (§2)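 MIC = lowest concentration with 100% growth inhibition, judged from A600 after 18-20 h incubation at 37° C. Bacteria at 1×10^6 CFU/ml in LB (pH 7.4 unless pH 5.5 stated) combined with equal volume of serially 2-fold diluted lipopeptide.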

[7] = test system: Staphylococcus aureus ATCC 6538P
How it was run: as §2

[8] = test system: Pseudomonas aeruginosa ATCC 27853
How it was run: as §2

[9] = test system: Acinetobacter baumannii ATCC 19606
How it was run: as §2

[10] = test system: human red blood cells (hRBC); assay: Hemolytic activity, release of hemoglobin at 540 nm
Description: Fresh human red blood cells (hRBC) with EDTA were rinsed 3 times with PBS (35 mM phosphate buffer/0.15 M NaCl, pH 7.3) by centrifugation for 10 min at 800 g and resuspended in PBS. Peptides dissolved in PBS were then added to 50 μl of a solution of the stock hRBC in PBS to reach a final volume of 100 μl (final erythrocyte concentration, 4% v/v). The resulting suspension was incubated under agitation for 60 min at 37° C. The samples were then centrifuged at 800×g for 10 min. Release of hemoglobin was monitored by measuring the absorbance of the supernatant at 540 nm. Controls for zero hemolysis (blank) and 100% hemolysis consisted of hRBC suspended in PBS and Triton 1%, respectively.

[11] = test system: Cryptococcus neoformans ATCC 66031; assay: microbe, parasite or virus in culture; details: Table 10; pH 7.4
How it was run: as §1

[12] = test system: Enterococcus faecalis ATCC 29212; details: Table 4; pH 7.4
How it was run: as §2

[13] = test system: Enterobacter cloacae ATCC 49141; details: Table 4; pH 7.4
How it was run: as §2

[14] = Table 14, lipopeptides vs parent peptides, pH 7.4
[15] = Table 8, lipopeptides vs parent peptides, pH 7.4

MIC ([2]; ATCC 10231, pH 7.4) | Compound | Minimal Inhibitory Concentration, Cryptococcus neoformans (ATCC MYA-422) ([1]; ATCC MYA-422, pH 7.4) | Minimal Inhibitory Concentration, Aspergillus niger (ATCC 9642) ([3]; ATCC 9642, pH 7.4) | Minimal Inhibitory Concentration, Aspergillus flavus (ATCC 9643) ([4]; ATCC 9643, pH 7.4) | Minimal Inhibitory Concentration, B. subtilis (ATCC 6051) (B. subtilis ATCC 6051; ATCC 6051, pH 7.4) | Minimal Inhibitory Concentration, Aspergillus fumigatus (ATCC 26430) ([5]; ATCC 26430, pH 7.4) | Minimal Inhibitory Concentration, E. coli (ATCC 25922) ([6]; ATCC 25922, pH 7.4) | Minimal Inhibitory Concentration, S. aureus ATCC 6538P ([7]; ATCC 6538, pH 7.4) | Minimal Inhibitory Concentration, P. aeruginosa ATCC 27853 ([8]; ATCC 27853, pH 7.4) | Minimal Inhibitory Concentration, A. baumannii ATCC 19606 ([9]; ATCC 19606, pH 7.4) | other results
>100 µM | NCCCC[C@@H](N)C(=O)NCC(=O)NCC(=O)NCC(=O)N[C@H](CCCCN)C(=O)NCC(=O)NCC(=O)NCC(=O)N[C@H](CCCCN)C(=O)NCC(=O)NCC(=O)N[C@H](CCCCN)C(N)=O [DK4G8, reference compound] (H-[dK]GGG[dK]GGG[dK]GG[dK]-NH2; N-terminus assumed) | >100 µM | >100 µM | >100 µM | >100 µM | >100 µM | >100 µM | >100 µM | >100 µM | >100 µM | –
3.125 µM (≈ 4.88 µg/mL) | CCCCCCCCCCCCCCCC(=O)N[C@@H](CCCCN)C(=O)N[C@H](C(=O)N[C@@H](C(=O)N[C@@H](C(=O)N[C@@H](CCCCN)C(=O)N[C@H](C(=O)N[C@H](C(=O)N[C@@H](C(=O)N[C@@H](CCCCN)C(=O)N[C@@H](C(=O)N[C@H](C(=O)N[C@@H](CCCCN)C(N)=O)C(C)C)C(C)C)C(C)C)C(C)C)C(C)C)C(C)C)C(C)C)C(C)C [lipopeptide 7, (CH3—(CH2)14—CO—)-Lys-Val-D-Val-D-Val-Lys-Val-Val-D-Val-Lys-D-Val-Val-Lys-NH2] (Palmitoyl-KV[dV][dV]KVV[dV]K[dV]VK-NH2) | 3.125 µM | >100 µM | >100 µM | >100 µM | >100 µM | >100 µM | >100 µM | >100 µM | >100 µM | –
>100 µM | CC(C)[C@H](NC(=O)[C@H](CCCCN)NC(=O)[C@H](NC(=O)[C@H](NC(=O)[C@@H](NC(=O)[C@@H](N)CCCCN)C(C)C)C(C)C)C(C)C)C(=O)N[C@H](C(=O)N[C@@H](C(=O)N[C@@H](CCCCN)C(=O)N[C@@H](C(=O)N[C@H](C(=O)N[C@@H](CCCCN)C(N)=O)C(C)C)C(C)C)C(C)C)C(C)C [DK4V8, reference compound] (H-KV[dV][dV]KVV[dV]K[dV]VK-NH2; N-terminus assumed) | 50 µM | >100 µM | >100 µM | 60 µM | >100 µM | >100 µM | >100 µM | >100 µM | >100 µM | –

Second part, the compound before the results:

Compound | MIC ([2]; ATCC 10231, pH 7.4) | Minimal Inhibitory Concentration, Cryptococcus neoformans (ATCC MYA-422) ([1]; ATCC MYA-422, pH 7.4) | Minimal Inhibitory Concentration, Aspergillus niger (ATCC 9642) ([3]; ATCC 9642, pH 7.4) | Minimal Inhibitory Concentration, Aspergillus flavus (ATCC 9643) ([4]; ATCC 9643, pH 7.4) | Minimal Inhibitory Concentration, B. subtilis (ATCC 6051) (B. subtilis ATCC 6051; ATCC 6051, pH 7.4) | Minimal Inhibitory Concentration, Aspergillus fumigatus (ATCC 26430) ([5]; ATCC 26430, pH 7.4) | Minimal Inhibitory Concentration, E. coli (ATCC 25922) ([6]; ATCC 25922, pH 7.4) | Minimal Inhibitory Concentration, S. aureus ATCC 6538P ([7]; ATCC 6538, pH 7.4) | Minimal Inhibitory Concentration, P. aeruginosa ATCC 27853 ([8]; ATCC 27853, pH 7.4) | Minimal Inhibitory Concentration, A. baumannii ATCC 19606 ([9]; ATCC 19606, pH 7.4) | other results
CCCCCCCCCCC(=O)NCC(=O)N[C@H](C(=O)NCC(=O)N[C@@H](CCCCN)C(=O)N[C@@H](Cc1ccccc1)C(=O)N[C@H](CC(C)C)C(=O)N[C@@H](Cc1c[nH]cn1)C(=O)N[C@@H](CO)C(=O)N[C@@H](C)C(=O)N[C@H](CCCCN)C(=O)N[C@@H](CCCCN)C(=O)N[C@@H](Cc1c[nH]c2ccccc12)C(=O)NCC(=O)N[C@@H](CCCCN)C(=O)N[C@@H](C)C(=O)N[C@H](Cc1ccccc1)C(=O)N[C@H](C(=O)NCC(=O)N[C@H](CCC(=O)O)C(=O)N[C@H](C(=O)N[C@@H](CCSC)C(=O)N[C@@H](CC(N)=O)C(=O)N[C@@H](CO)C(N)=O)[C@@H](C)CC)C(C)C)[C@@H](C)CC [[D]4magainin-UA] (Undecanoyl-GIGKF[dL]HSA[dK]KWGKA[dF]VG[dE]IMNS-NH2) | – | – | – | – | – | – | – | – | – | – | % of Hemolytic activity at maximal MIC ([10]; human): 2%; MIC ([1]; Table 17, D-magainin analog, mean of 3 experiments, standard deviation of 25%, read-out: Minimal Inhibitory Concentration, Cyrptococcus neoformans (ATCC MYA-422)): 6.25 µM (≈ 16.7 µg/mL); MIC ([2]; ATCC 10231): >50 µM; Minimal Inhibitory Concentration, B. subtilis (ATCC 6051) (B. subtilis ATCC 6051; ATCC 6051): 6.25 µM; Minimal Inhibitory Concentration, Aspergillus fumigatus (ATCC 26430) ([5]; ATCC 26430): >50 µM; Minimal Inhibitory Concentration, E. coli (ATCC 25922) ([6]; ATCC 25922): >50 µM; Minimal Inhibitory Concentration, S. aureus ATCC 6538P ([7]; ATCC 6538): 50 µM; Minimal Inhibitory Concentration, P. aeruginosa ATCC 27853 ([8]; ATCC 27853): 50 µM
C[C@H](NC(=O)[C@H](C)NC(=O)[C@H](CCCCN)NC(=O)[C@@H](C)NC(=O)[C@@H](C)NC(=O)[C@H](C)NC(=O)[C@@H](N)CCCCN)C(=O)N[C@H](C)C(=O)N[C@@H](CCCCN)C(=O)N[C@H](C)C(=O)N[C@@H](C)C(=O)N[C@@H](CCCCN)C(N)=O [DK4A8, reference compound] (H-KA[dA][dA]KAA[dA]K[dA]AK-NH2; N-terminus assumed) | – | – | – | – | – | – | – | – | – | – | Minimal Inhibitory Concentration, Cryptococcus neoformans (ATCC MYA-422) [1, 14]: >100 µM; MIC [2, 14]: >100 µM; Minimal Inhibitory Concentration, Aspergillus niger (ATCC 9642) [3, 14]: >100 µM; Minimal Inhibitory Concentration, Aspergillus flavus (ATCC 9643) [4, 14]: >100 µM; Minimal Inhibitory Concentration, B. subtilis (ATCC 6051) (B. subtilis ATCC 6051; [15]): >100 µM; Minimal Inhibitory Concentration, Aspergillus fumigatus (ATCC 26430) [5, 14]: >100 µM; Minimal Inhibitory Concentration, E. coli (ATCC 25922) [6, 15]: >100 µM; Minimal Inhibitory Concentration, S. aureus ATCC 6538P [7, 15]: >100 µM; Minimal Inhibitory Concentration, P. aeruginosa ATCC 27853 [8, 15]: >100 µM; Minimal Inhibitory Concentration, A. baumannii ATCC 19606 [9, 15]: >100 µM
CCCCCCCCCCCCCCCC(=O)N[C@@H](CCCCN)C(=O)N[C@@H](C)C(=O)N[C@@H](C)C(=O)N[C@@H](C)C(=O)N[C@@H](CCCCN)C(=O)N[C@@H](C)C(=O)N[C@@H](C)C(=O)N[C@@H](C)C(=O)N[C@@H](CCCCN)C(=O)N[C@@H](C)C(=O)N[C@@H](C)C(=O)N[C@@H](CCCCN)C(N)=O [lipopeptide 6, (CH3—(CH2)14—CO—)-Lys-Ala-Ala-Ala-Lys-Ala-Ala-Ala-Lys-Ala-Ala-Lys-NH2] (Palmitoyl-KAAAKAAAKAAK-NH2) | – | – | – | – | – | – | – | – | – | – | hemolytic activity ([10]; at concentrations lower than 12 μM, human red blood cells (FIGS. 1-5)): do not exhibit significant hemolytic activity; Minimal Inhibitory Concentration, C. neoformans ATCC 66031 [11]: 1.56 µM; Minimal Inhibitory Concentration, C. albicans ATCC 10231 ([2]; Table 10, pH 7.4): 3.125 µM; Minimal Inhibitory Concentration, A. fumigatus ATCC 26430 ([5]; Table 10, pH 7.4): 12.5 µM; Minimal Inhibitory Concentration, E. coli ([6]; Table 4, pH 7.4): 50 µM; Minimal Inhibitory Concentration, S. aureus ([7]; Table 4, pH 7.4): 50 µM; Minimal Inhibitory Concentration, E. faecalis [12]: 50 µM; Minimal Inhibitory Concentration, E. cloacae [13]: 100 µM; Minimal Inhibitory Concentration, P. Aeruginosa ([8]; Table 4, pH 7.4): 25 µM; Minimal Inhibitory Concentration, A. Baumaannii ([9]; Table 4, pH 7.4): 25 µM
